Test results as given in ChEMBL document CHEMBL5579818, “Identification of 3-(9H-carbazol-9-yl)-2-(1,3-dioxoisoindolin-2-yl)propanoic acids as promising DNMT1 inhibitors” (Eur J Med Chem, 2024).
The source made the active and inactive calls. The calls are words filed in the database; no cut-off is given here.

Experiments:
[1] = target: T1, DNA (cytosine-5)-methyltransferase 1 (Homo sapiens, UniProt P26358); assay: Binding affinity to human DNMT1 expressed in Escherichia coli assessed as response unit at 10 uM by SPR analysis
T1 sequence (P26358 whole entry): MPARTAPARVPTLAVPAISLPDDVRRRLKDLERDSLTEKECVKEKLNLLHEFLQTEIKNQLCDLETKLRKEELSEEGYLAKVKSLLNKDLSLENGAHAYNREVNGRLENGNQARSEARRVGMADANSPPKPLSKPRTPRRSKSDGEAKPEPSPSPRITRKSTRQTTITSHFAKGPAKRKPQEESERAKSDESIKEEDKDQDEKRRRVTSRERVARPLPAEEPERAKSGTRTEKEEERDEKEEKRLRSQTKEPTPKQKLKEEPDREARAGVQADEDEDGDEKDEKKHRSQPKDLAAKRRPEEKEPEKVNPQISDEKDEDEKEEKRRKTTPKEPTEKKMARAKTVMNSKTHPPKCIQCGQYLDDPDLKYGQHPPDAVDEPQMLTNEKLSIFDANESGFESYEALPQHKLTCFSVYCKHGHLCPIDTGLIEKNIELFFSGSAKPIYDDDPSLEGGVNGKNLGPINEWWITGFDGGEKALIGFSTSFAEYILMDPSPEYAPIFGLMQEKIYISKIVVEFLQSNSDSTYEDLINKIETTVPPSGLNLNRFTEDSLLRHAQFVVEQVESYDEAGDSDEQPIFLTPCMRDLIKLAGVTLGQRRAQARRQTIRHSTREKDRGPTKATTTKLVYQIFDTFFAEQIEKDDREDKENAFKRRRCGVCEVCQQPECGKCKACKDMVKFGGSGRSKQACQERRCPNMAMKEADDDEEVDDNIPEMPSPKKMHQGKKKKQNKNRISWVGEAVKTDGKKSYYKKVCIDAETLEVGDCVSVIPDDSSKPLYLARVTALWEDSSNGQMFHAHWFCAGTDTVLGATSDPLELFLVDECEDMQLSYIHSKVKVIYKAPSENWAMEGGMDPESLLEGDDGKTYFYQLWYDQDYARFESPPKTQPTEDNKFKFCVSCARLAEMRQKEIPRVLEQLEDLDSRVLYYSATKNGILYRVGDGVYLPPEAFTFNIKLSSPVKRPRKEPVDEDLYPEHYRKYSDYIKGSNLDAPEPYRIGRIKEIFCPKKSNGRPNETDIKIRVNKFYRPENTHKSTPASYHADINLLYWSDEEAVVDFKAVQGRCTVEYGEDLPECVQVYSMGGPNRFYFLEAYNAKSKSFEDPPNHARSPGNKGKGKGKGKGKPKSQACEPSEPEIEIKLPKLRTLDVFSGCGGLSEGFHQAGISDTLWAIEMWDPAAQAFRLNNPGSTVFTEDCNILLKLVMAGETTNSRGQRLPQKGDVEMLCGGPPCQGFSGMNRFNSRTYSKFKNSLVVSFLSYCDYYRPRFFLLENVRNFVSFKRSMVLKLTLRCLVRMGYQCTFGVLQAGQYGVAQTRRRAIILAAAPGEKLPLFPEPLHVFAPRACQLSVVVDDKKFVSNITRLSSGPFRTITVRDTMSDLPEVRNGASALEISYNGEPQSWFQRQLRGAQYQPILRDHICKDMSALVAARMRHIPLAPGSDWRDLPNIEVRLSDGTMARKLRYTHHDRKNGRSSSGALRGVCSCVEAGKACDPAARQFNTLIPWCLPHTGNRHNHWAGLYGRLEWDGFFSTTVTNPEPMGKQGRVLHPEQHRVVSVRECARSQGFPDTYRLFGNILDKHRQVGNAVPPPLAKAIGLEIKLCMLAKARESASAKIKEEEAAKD

[2] = target: T1, DNA (cytosine-5)-methyltransferase 1; assay: Inhibition of DNMT1 (unknown origin) at 250 uM using semi-methylated DNA substrate preincubated for 15 mins followed by substrate and [3H-SAM] addition and measured after 60 mins by microbeta scintillation counting assay relative to control; conditions: time 75.0 min
HeLa [3] = assay: Antiproliferative activity against human HeLa cells at 100 uM incubated for 48 hrs by MTT assay; type: functional
[4] = target: T1, DNA (cytosine-5)-methyltransferase 1; assay: Binding affinity to human DNMT1 expressed in Escherichia coli assessed as equilibrium dissociation constant by SPR analysis
SiHa [5] = assay: Antiproliferative activity against human SiHa cells incubated for 48 hrs by MTT assay; type: functional, cell-based
A2780 [6] = assay: Antiproliferative activity against human A2780 cells incubated for 48 hrs by MTT assay; type: functional, cell-based; conditions: A2780, 48 h
A2780 [7] = assay: Antiproliferative activity against human A2780 cells at 100 uM incubated for 48 hrs by MTT assay; type: functional
HeLa [8] = assay: Antiproliferative activity against human HeLa cells incubated for 48 hrs by MTT assay; type: functional, cell-based
K562 [9] = assay: Antiproliferative activity against human K562 cells at 100 uM incubated for 48 hrs by MTT assay; type: functional
K562 [10] = assay: Antiproliferative activity against human K562 cells incubated for 48 hrs by MTT assay; type: functional, cell-based; conditions: K562, 48 h
[11] = target: T1, DNA (cytosine-5)-methyltransferase 1; assay: Inhibition of DNMT1 (unknown origin) using semi-methylated DNA substrate preincubated for 15 mins followed by substrate and [3H-SAM] addition and measured after 60 mins by microbeta scintillation counting assay
SiHa [12] = assay: Antiproliferative activity against human SiHa cells at 100 uM incubated for 48 hrs by MTT assay; type: functional
[13] = target: T1, DNA (cytosine-5)-methyltransferase 1; assay: Binding affinity to human DNMT1 in presence of 10 uM SAM by SPR analysis
[14] = target: T1, DNA (cytosine-5)-methyltransferase 1; assay: Binding affinity to human DNMT1 expressed in Escherichia coli assessed as binding constant by SPR analysis

SMILES | Activity [1] | inhibition [2] [%] | Kd [4] [µM] | IC50 (SiHa [5]) [µM] | IC50 (A2780 [6]) [µM] | IC50 (HeLa [8]) [µM] | IC50 (K562 [10]) [µM] | IC50 [11] [µM] | other results
Cc1ccc2c(c1)c1cc(C)ccc1n2CC(C(=O)O)N1C(=O)c2ccccc2C1=O (racemic) | Active | > 75 |  |  |  |  |  |  | 
O=C(O)C(Cn1c2ccc(Cl)cc2c2cc(Cl)ccc21)N1C(=O)c2ccccc2C1=O (racemic) | Active | > 75 |  |  |  |  |  |  | 
O=C(O)C(Cn1c2ccc(Cl)cc2c2cc(Cl)cc(Cl)c21)N1C(=O)c2ccccc2C1=O (racemic) | 65.5 RU | > 75 | 0.16 | 78 | 72.8 | 97.6 | 45.8 |  | Activity (HeLa [3]): 52%; Activity (A2780 [7]): 59%; Activity (K562 [9]): 91%
O=C(O)C(Cn1c2ccc(Br)cc2c2cc(Br)ccc21)N1C(=O)c2ccccc2C1=O (stereo in doubt; 7n-2) |  |  |  |  |  |  |  | 38.2 | 
O=C(O)C(Cn1c2ccccc2c2cc(Br)ccc21)N1C(=O)c2ccccc2C1=O (racemic) |  | < 50 |  |  |  |  |  |  | Activity (HeLa [3]): <5%; Activity (A2780 [7]): <5%; Activity (SiHa [12]): <5%; Activity (K562 [9]): <5%
O=C(O)C(Cn1c2ccc(Br)cc2c2cc(Br)ccc21)N1C(=O)c2ccccc2C1=O (racemic) [listing 1 of 2 here] |  |  | 1.16 |  |  |  |  |  | Kd [13]: 4.09 µM
O=C(O)C(Cn1c2ccc(Br)cc2c2cc(Br)ccc21)N1C(=O)c2ccccc2C1=O (racemic) [listing 2 of 2 here] | Active | > 75 |  |  |  |  |  |  | Ka [14]: 34000 M⁻¹ s⁻¹
O=C(O)[C@@H](Cn1c2ccc(Cl)cc2c2cc(Cl)cc(Cl)c21)N1C(=O)c2ccccc2C1=O |  |  | 0.127 | 83.2 | 68.6 | 89 | 44.4 | 0.777 | 
CC(C)(C)c1ccc2c(c1)c1cc(C(C)(C)C)ccc1n2C[C@H](C(=O)O)N1C(=O)c2ccccc2C1=O |  |  | 0.666 | 54.9 | 34.6 | 59.9 | 17 | 17.3 | 
